Laboratory results from patent US11752149B2, “Muscarinic acetylcholine M1 receptor antagonists” (Pipeline Therapeutics, Inc., priority 2019, dated 2023).
Read-outs that look alike come from different tables or passages of the source.

Tests used:
Format in all cases: cell-based
human M3 receptor = human M3 receptor (Homo sapiens (Human), UniProt P20309); test: Aequorin calcium flux assay, reversal of EC80 acetylcholine response, M3
Experimental: (§1) CHO-K1 cells stably expressing human M1 receptor with aequorin (Perkin Elmer) were grown in F12 media (Gibco) containing 10% FBS (ATCC), 0.4 mg/mL geneticin (Sigma-Aldrich) and 0.25 mg/mL Zeocin (Invitrogen). Cells were grown as per the manufacturer's protocol. For compound testing, cells were grown to confluency and detached gently with Accutase (Sigma-Aldrich) followed by centrifugation for 5 min at 150×g. Cells were then re-suspended in assay buffer (i.e. DMEM/F-12 HEPES without phenol red (Invitrogen) with 0.1% BSA (Sigma-Aldrich)) at a density of 5×10^6 cells/ml. Under sterile conditions, 5 μM coelenterazine (Invitrogen) was added to the cells, mixed, then incubated at room temperature protected from light, with gentle agitation, for 4 h.
(§2) Primary compound plates were prepared in 100% DMSO in opaque 96-well plates (VWR) and serially diluted in half log increments. Secondary compound plates were prepared at 3× concentration in assay buffer. Compounds were added to white, clear bottom tissue culture treated 96-well plates (Fisher Scientific). Coelenterazine-loaded cells were then added at 5×10^5 cells/well.
(§3) Compounds and cells were incubated at room temperature for 30 min in the dark. Acetylcholine at the EC80 concentration was added and calcium flux measured using a FlexStation 3 (Molecular Devices). Sigmoidal dose-response curves were generated by measuring luminescence over 40 sec and calculating the area under the curve. Dose response curves and IC50 values were generated using Prism (GraphPad). Compounds were tested at a final concentration range of 100 pM to 10 μM in 0.1% DMSO.
(§4) CHO-K1 cells stably expressing human M2, M3 and M4 receptors, respectively, with aequorin (Perkin Elmer) were used to assess a test compound's ability to dose-dependently reverse the EC80 acetylcholine response. The IC50 of the compounds was calculated from the dose response curve.

human M2 receptor = human M2 receptor (Homo sapiens (Human), UniProt P08172); test: Aequorin calcium flux assay, reversal of EC80 acetylcholine response, M2
Experimental: as §1, §2, §3, §4

human M1 receptor = human M1 receptor (Homo sapiens (Human), UniProt P11229); test: In vitro functional assay of muscarinic acetylcholine receptor activity, aequorin calcium flux, reversal of EC80 acetylcholine
Experimental: as §1, §2, §3

human M4 receptor = human M4 receptor (Homo sapiens (Human), UniProt P08173); test: Aequorin calcium flux assay, reversal of EC80 acetylcholine response, M4
Experimental: as §1, §2, §3, §4

[1] = CHO-K1 cells expressing human M1 receptor with aequorin, acetylcholine at EC80, read-out: M1 IC50
[2] = CHO-K1 cells expressing human M2 receptor with aequorin, acetylcholine at EC80, read-out: M2 IC50

Sequence of human M2 receptor (P08172 whole entry): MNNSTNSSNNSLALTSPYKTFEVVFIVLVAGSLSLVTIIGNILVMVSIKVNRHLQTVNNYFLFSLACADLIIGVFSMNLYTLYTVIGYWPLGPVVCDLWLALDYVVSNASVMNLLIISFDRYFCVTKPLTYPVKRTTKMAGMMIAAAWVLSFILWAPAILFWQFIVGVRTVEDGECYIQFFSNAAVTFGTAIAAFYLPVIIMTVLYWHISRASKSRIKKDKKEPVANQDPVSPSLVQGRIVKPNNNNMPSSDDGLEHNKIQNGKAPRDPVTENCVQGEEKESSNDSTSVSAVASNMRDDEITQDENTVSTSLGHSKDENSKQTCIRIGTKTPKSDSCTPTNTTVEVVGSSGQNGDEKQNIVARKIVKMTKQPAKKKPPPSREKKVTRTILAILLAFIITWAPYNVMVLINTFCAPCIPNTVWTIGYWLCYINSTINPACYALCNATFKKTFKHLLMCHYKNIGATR
Sequence of human M3 receptor (P20309 whole entry, looked up): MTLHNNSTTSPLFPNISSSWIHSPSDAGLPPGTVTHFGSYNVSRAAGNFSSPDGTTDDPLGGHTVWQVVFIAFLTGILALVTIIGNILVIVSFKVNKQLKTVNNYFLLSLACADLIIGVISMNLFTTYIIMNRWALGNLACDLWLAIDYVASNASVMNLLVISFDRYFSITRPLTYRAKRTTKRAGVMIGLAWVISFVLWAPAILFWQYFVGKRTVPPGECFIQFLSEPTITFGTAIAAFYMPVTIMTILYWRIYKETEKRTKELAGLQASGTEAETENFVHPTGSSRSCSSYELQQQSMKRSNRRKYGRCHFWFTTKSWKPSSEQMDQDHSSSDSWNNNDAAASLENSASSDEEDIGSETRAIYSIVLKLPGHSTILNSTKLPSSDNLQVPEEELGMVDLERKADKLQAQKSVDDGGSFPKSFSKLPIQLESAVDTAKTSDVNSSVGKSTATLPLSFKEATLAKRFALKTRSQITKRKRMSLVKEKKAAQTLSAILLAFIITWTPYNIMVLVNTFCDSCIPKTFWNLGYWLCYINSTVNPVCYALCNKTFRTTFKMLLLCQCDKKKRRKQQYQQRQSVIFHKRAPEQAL
Sequence of human M4 receptor (P08173 whole entry): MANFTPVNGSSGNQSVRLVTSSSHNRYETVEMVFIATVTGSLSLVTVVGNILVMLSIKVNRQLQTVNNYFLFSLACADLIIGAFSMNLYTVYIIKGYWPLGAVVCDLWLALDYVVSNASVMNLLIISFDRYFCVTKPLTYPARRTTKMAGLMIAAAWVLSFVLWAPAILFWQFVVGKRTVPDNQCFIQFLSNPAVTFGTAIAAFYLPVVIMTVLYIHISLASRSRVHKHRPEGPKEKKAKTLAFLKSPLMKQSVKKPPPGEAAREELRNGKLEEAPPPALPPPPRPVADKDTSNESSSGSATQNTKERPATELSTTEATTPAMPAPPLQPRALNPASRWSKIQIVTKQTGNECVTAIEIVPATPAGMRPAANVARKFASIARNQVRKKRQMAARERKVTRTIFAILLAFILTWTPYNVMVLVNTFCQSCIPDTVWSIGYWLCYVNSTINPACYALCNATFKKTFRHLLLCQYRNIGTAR
Sequence of human M1 receptor (P11229 whole entry): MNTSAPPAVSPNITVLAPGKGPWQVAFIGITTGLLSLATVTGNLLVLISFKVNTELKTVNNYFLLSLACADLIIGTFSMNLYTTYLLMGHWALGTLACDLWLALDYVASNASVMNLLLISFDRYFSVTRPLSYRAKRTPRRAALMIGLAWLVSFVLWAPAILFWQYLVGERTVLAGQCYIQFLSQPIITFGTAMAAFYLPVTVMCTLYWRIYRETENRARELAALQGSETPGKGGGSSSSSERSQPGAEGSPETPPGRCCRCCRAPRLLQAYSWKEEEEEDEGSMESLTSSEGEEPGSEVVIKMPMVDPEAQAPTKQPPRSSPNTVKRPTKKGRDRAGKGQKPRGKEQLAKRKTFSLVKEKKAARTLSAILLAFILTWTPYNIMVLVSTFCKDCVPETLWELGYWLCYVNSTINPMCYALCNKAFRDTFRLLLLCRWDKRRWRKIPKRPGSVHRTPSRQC

| SMILES | IC50 (human M1 receptor) | also measured |
| --- | --- | --- |
| N#Cc1ccc(N2C3CCC2CN(C(=O)CCS(=O)(=O)c2ccccc2[C@H]2CC2(F)F)C3)nc1 (single isomer, unassigned) [Example 35] | – | IC50 (human M3 receptor; CHO-K1 cells expressing human M3 receptor with aequorin, acetylcholine at EC80, read-out: M3 IC50): 100 to 1000 nM; IC50 (human M2 receptor): 10 to 100 nM; IC50 (human M1 receptor; [1]): < 10 nM; IC50 (human M4 receptor; CHO-K1 cells expressing human M4 receptor with aequorin, acetylcholine at EC80, read-out: M4 IC50): 10 to 100 nM |
| COc1cccc(S(=O)(=O)CCC(=O)N2CC3CCC(C2)N3c2ccc(C#N)cn2)c1 [Example 2, 6-(3-(3-((3-methoxyphenyl)sulfonyl)propanoyl)-3,8-diazabicyclo[3.2.1]octan-8-yl)nicotinonitrile] | 10 to 100 nM | IC50 (human M3 receptor): 100 to 1000 nM; IC50 (human M2 receptor; [2]): > 10000 nM; IC50 (human M4 receptor): 100 to 1000 nM |
| COc1cc(S(=O)(=O)CCC(=O)N2CC3CCC(C2)N3c2ccc(C#N)cn2)ccc1F [Example 3, 6-(3-(3-((4-fluoro-3-methoxyphenyl)sulfonyl)propanoyl)-3,8-diazabicyclo[3.2.1]octan-8-yl)nicotinonitrile] | – | IC50 (human M3 receptor): 100 to 1000 nM; IC50 (human M2 receptor; [2]): > 10000 nM; IC50 (human M1 receptor; [1]): < 10 nM; IC50 (human M4 receptor): 100 to 1000 nM |
| COc1cccc(S(=O)(=O)CCC(=O)N2CC3CCC(C2)N3c2ccc(C(F)(F)F)cn2)c1 [Example 16, 3-(3-methoxybenzenesulfonyl)-1-{8-[5-(trifluoromethyl)pyridin-2-yl]-3,8-diazabicyclo[3.2.1]octan-3-yl}propan-1-one] | 100 to 1000 nM | – |
| COc1cccc(S(=O)(=O)CCC(=O)N2CC3CCC(C2)N3c2ccc(C(F)(F)F)nn2)c1 [Example 17, 3-(3-methoxybenzenesulfonyl)-1-{8-[6-(trifluoromethyl)pyridazin-3-yl]-3,8-diazabicyclo[3.2.1]octan-3-yl}propan-1-one] | 100 to 1000 nM | – |
| COc1cccc(S(=O)(=O)CCC(=O)N2CC3CCC(C2)N3c2ccc(C)cn2)c1 [Example 18, 3-(3-methoxybenzenesulfonyl)-1-[8-(5-methylpyridin-2-yl)-3,8-diazabicyclo[3.2.1]octan-3-yl]propan-1-one] | – | IC50 (human M1 receptor; [1]): 1000 to 10000 nM |
| COc1cccc(S(=O)(=O)CCC(=O)N2CC3CCC(C2)N3c2ccc(F)c(C#N)c2)c1 [Example 19, 2-fluoro-5-{3-[3-(3-methoxybenzenesulfonyl)propanoyl]-3,8-diazabicyclo [3.2.1]octan-8-yl}benzonitrile] | 100 to 1000 nM | – |
| COc1cccc(S(=O)(=O)CCC(=O)N2CC3CCC(C2)N3c2ccc(C#N)c(F)c2)c1 [Example 20, 2-fluoro-4-{3-[3-(3-methoxybenzenesulfonyl)propanoyl]-3,8-diazabicyclo [3.2.1]octan-8-yl}benzonitrile] | 10 to 100 nM | – |
| N#Cc1ccc(N2C3CCC2CN(C(=O)CCS(=O)(=O)c2cccc(OC4CC4)c2)C3)nc1 [Example 21, 6-{3-[3-(3-cyclopropoxybenzenesulfonyl)propanoyl]-3,8-diazabicyclo [3.2.1]octan-8-yl}pyridine-3-carbonitrile] | 100 to 1000 nM | – |
| N#Cc1ccc(N2C3CCC2CN(C(=O)CCS(=O)(=O)c2cccc(Br)c2)C3)nc1 [Example 22, 6-{3-[3-(3-bromobenzenesulfonyl)propanoyl]-3,8-diazabicyclo [3.2.1]octan-8-yl}pyridine-3-carbonitrile] | 100 to 1000 nM | – |
| N#Cc1ccc(N2C3CCC2CN(C(=O)CCS(=O)(=O)c2ncccc2C2CC2)C3)nc1 [Example 23, 6-(3-{3-[(3-cyclopropylpyridin-2-yl)sulfonyl]propanoyl}-3,8-diazabicyclo[3.2.1]octan-8-yl)pyridine-3-carbonitrile] | 100 to 1000 nM | – |
| Cc1c(F)cccc1S(=O)(=O)CCC(=O)N1CC2CCC(C1)N2c1ccc(C#N)cn1 [Example 24, 6-{3-[3-(3-fluoro-2-methylbenzenesulfonyl)propanoyl]-3,8-diazabicyclo [3.2.1]octan-8-yl}pyridine-3-carbonitrile] | – | IC50 (human M3 receptor): 100 to 1000 nM; IC50 (human M2 receptor; [2]): 1000 to 10000 nM; IC50 (human M1 receptor; [1]): < 10 nM; IC50 (human M4 receptor): 100 to 1000 nM |
| N#Cc1ccc(N2C3CCC2CN(C(=O)CCS(=O)(=O)c2ccnc(C4CC4)c2)C3)nc1 [Example 25, 6-(3-{3-[(2-cyclopropyl-pyridin-4-yl)sulfonyl]propanoyl}-3,8-diazabicyclo [3.2.1]octan-8-yl)pyridine-3-carbonitrile] | 100 to 1000 nM | – |
| N#Cc1ccc(N2C3CCC2CN(C(=O)CCS(=O)(=O)c2ccccc2C(F)F)C3)nc1 [Example 26, 6-(3-{3-[2-(difluoromethyl)benzene-sulfonyl]propanoyl}-3,8-diazabicyclo-[3.2.1]octan-8-yl)pyridine-3-carbonitrile] | 100 to 1000 nM | – |
| N#Cc1ccc(N2C3CCC2CN(C(=O)CCS(=O)(=O)c2cccnc2C2CC2)C3)nc1 [Example 27, 6-(3-{3-[(2-cyclopropylpyridin-3-yl)sulfonyl]propanoyl}-3,8-diazabicyclo[3.2.1]octan-8-yl)pyridine-3-carbonitrile] | 10 to 100 nM | – |
| N#Cc1ccc(N2C3CCC2CN(C(=O)CCS(=O)(=O)c2ccccc2Br)C3)nc1 [Example 28, 6-(3-(3-((2-bromophenyl)sulfonyl)propanoyl)-3,8-diazabicyclo [3.2.1]octan-8-yl)nicotinonitrile] | 100 to 1000 nM | – |
| N#Cc1ccc(N2C3CCC2CN(C(=O)CCS(=O)(=O)c2ccccc2C(F)(F)F)C3)nc1 [Example 29, 6-(3-(3-((2-(trifluoromethyl)phenyl)sulfonyl)propanoyl)-3,8-diazabicyclo[3.2.1]octan-8-yl)nicotinonitrile] | 100 to 1000 nM | – |
| N#Cc1ccc(N2C3CCC2CN(C(=O)CCS(=O)(=O)c2ccccc2OC(F)(F)F)C3)nc1 [Example 30, 6-(3-(3-((2-(trifluoromethoxy)phenyl)sulfonyl)propanoyl)-3,8-diazabicyclo-[3.2.1]octan-8-yl)nicotinonitrile] | 100 to 1000 nM | – |
| CC(F)(F)c1ccccc1S(=O)(=O)CCC(=O)N1CC2CCC(C1)N2c1ccc(C#N)cn1 [Example 31, 6-(3-(3-((2-(1,1-difluoroethyl)phenyl)sulfonyl)propanoyl)-3,8-diazabicyclo [3.2.1]octan-8-yl)nicotinonitrile] | 100 to 1000 nM | – |
| Cc1ccc(F)cc1S(=O)(=O)CCC(=O)N1CC2CCC(C1)N2c1ccc(C#N)cn1 [Example 32, 6-(3-(3-((5-fluoro-2-methylphenyl)sulfonyl)propanoyl)-3,8-diazabicyclo [3.2.1]octan-8-yl)nicotinonitrile] | 100 to 1000 nM | – |
| Cc1cc(F)cc(S(=O)(=O)CCC(=O)N2CC3CCC(C2)N3c2ccc(C#N)cn2)c1 [Example 33, 6-(3-(3-((3-fluoro-5-methylphenyl)sulfonyl)propanoyl)-3,8-diazabicyclo [3.2.1]octan-8-yl)nicotinonitrile] | 100 to 1000 nM | – |
